Laboratory results as given in the kinase profiling compilation of Christmann-Franck et al. (2016).
“And” between values parts separate entries of the source, which are not always exact repeats. Equal entries are not always repeated.

Legend:
Experiment in all cases: KINOMEscan competition binding
Conditions in all cases: compound 10.0 µM
MYLK (human) = MYLK (human) (UniProt Q15746)
CRK2 (P.falciparum) = CRK2 (P.falciparum) (UniProt P61075)
[1] = test system: PIK3CA (human), P42336 [E542K]
STK17B (human) = STK17B (human) (UniProt O94768)
STK35 (human) = STK35 (human) (UniProt Q8TDR2)
PLK2 (human) = PLK2 (human) (UniProt Q9NYY3)
DCLK3 (human) = DCLK3 (human) (UniProt Q9C098)
MAP4K3 (human) = MAP4K3 (human) (UniProt Q8IVH8)
STK38 (human) = STK38 (human) (UniProt Q15208)
FLT3 (human) = FLT3 (human) (UniProt P36888)
RPS6KA3 KD1 (human) = RPS6KA3 KD1 (human) (UniProt P51812)
CHEK2 (human) = CHEK2 (human) (UniProt O96017)
RIPK1 (human) = RIPK1 (human) (UniProt Q13546)
SBK1 (human) = SBK1 (human) (UniProt Q52WX2)
MAPK6 (human) = MAPK6 (human) (UniProt Q16659)
TLK2 (human) = TLK2 (human) (UniProt Q86UE8)
MELK (human) = MELK (human) (UniProt Q14680)
Chain of MELK (human) (Q14680 whole entry, looked up): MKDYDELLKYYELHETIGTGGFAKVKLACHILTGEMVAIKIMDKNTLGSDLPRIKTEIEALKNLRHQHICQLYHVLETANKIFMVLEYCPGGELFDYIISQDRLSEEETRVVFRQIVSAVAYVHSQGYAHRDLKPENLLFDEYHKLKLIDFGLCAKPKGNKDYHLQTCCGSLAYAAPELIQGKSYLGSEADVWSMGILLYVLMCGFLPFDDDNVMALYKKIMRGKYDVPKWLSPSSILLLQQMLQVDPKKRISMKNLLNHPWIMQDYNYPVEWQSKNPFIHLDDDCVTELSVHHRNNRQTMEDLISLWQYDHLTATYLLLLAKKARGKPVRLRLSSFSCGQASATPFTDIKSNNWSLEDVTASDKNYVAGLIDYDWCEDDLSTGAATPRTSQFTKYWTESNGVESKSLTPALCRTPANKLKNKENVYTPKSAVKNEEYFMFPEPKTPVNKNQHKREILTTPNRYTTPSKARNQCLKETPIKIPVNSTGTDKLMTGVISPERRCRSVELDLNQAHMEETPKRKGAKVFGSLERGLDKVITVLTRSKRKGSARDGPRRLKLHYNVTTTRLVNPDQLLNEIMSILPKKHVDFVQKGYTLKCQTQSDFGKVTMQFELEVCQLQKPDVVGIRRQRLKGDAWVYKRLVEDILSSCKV

ERBB4 (human) = ERBB4 (human) (UniProt Q15303)
ERN1 (human) = ERN1 (human) (UniProt O75460)
MLTK (human) = MLTK (human) (UniProt Q9NYL2)
[2] = molecular target: JAK1 JH2 pseudokinase (human) (UniProt P23458)
Chain of JAK1 JH2 pseudokinase (human) (P23458 whole entry, looked up): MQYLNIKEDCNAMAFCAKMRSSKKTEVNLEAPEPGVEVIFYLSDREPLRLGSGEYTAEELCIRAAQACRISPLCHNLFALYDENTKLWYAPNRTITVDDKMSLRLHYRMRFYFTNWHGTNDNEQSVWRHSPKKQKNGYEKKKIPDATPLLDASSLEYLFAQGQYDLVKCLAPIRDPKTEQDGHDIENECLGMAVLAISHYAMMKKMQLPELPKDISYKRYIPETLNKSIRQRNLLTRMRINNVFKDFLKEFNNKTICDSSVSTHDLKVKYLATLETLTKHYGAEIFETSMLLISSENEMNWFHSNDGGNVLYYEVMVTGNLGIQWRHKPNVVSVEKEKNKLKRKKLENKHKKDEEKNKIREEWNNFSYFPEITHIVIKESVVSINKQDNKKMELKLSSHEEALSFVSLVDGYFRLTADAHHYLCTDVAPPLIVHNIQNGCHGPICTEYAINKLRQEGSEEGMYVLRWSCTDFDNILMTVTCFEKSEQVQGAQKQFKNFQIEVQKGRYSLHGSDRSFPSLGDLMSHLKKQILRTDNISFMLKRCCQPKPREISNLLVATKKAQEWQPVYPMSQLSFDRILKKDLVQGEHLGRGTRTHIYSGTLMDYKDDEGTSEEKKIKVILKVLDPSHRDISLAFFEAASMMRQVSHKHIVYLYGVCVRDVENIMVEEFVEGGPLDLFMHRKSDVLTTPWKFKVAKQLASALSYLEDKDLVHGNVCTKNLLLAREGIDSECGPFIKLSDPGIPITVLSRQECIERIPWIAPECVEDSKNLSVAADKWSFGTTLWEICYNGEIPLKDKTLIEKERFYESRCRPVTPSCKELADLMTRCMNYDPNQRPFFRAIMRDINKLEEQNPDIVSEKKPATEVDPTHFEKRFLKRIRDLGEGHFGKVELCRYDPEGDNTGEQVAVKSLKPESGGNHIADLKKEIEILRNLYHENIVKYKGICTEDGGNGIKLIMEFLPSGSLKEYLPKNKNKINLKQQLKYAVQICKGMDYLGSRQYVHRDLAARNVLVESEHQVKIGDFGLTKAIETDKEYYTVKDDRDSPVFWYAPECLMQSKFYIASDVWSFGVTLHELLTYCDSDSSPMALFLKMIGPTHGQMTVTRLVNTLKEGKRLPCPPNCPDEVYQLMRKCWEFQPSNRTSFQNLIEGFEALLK

EPHA3 (human) = EPHA3 (human) (UniProt P29320)
GRK4 (human) = GRK4 (human) (UniProt P32298)
CDK4 CCND1 (human) = CDK4 CCND1 (human) (UniProt P11802+P24385)
RPS6KA6 KD2 (human) = RPS6KA6 KD2 (human) (UniProt Q9UK32)
ERBB3 (human) = ERBB3 (human) (UniProt P21860)
BMPR2 (human) = BMPR2 (human) (UniProt Q13873)
MAPK1 (human) = MAPK1 (human) (UniProt P28482)
LYN (human) = LYN (human) (UniProt P07948)
ALK (human) = ALK (human) (UniProt Q9UM73)
PRKD3 (human) = PRKD3 (human) (UniProt O94806)
Chain of PRKD3 (human) (O94806 whole entry, looked up): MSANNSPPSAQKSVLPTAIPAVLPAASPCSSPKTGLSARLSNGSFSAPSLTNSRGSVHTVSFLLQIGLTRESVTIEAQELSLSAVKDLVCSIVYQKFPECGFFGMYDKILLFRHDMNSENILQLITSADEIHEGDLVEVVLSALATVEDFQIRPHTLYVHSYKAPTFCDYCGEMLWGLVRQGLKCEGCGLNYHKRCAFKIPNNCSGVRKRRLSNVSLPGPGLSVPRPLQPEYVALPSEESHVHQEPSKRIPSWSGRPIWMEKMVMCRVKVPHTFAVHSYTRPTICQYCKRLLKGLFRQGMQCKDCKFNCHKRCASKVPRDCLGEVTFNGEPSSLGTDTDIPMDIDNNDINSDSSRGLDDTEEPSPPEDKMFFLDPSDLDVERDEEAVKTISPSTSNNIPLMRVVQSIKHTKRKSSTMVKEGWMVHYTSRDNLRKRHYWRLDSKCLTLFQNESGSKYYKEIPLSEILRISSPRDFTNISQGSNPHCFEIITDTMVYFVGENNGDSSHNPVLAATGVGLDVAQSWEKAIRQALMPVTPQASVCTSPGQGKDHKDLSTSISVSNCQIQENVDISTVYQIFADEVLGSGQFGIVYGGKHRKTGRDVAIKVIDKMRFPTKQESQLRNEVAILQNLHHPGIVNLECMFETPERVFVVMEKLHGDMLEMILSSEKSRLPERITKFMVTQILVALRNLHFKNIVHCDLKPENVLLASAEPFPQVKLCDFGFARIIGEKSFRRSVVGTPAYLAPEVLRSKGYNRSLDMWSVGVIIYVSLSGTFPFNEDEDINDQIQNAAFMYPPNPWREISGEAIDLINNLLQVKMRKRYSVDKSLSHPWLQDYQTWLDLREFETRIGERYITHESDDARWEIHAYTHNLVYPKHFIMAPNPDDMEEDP

MAP3K10 (human) = MAP3K10 (human) (UniProt Q02779)
[3] = test system: PIK3CA (human), P42336 [H1047L]
Chain of PIK3CA (human), P42336 [H1047L] (P42336 whole entry H1047L, looked up): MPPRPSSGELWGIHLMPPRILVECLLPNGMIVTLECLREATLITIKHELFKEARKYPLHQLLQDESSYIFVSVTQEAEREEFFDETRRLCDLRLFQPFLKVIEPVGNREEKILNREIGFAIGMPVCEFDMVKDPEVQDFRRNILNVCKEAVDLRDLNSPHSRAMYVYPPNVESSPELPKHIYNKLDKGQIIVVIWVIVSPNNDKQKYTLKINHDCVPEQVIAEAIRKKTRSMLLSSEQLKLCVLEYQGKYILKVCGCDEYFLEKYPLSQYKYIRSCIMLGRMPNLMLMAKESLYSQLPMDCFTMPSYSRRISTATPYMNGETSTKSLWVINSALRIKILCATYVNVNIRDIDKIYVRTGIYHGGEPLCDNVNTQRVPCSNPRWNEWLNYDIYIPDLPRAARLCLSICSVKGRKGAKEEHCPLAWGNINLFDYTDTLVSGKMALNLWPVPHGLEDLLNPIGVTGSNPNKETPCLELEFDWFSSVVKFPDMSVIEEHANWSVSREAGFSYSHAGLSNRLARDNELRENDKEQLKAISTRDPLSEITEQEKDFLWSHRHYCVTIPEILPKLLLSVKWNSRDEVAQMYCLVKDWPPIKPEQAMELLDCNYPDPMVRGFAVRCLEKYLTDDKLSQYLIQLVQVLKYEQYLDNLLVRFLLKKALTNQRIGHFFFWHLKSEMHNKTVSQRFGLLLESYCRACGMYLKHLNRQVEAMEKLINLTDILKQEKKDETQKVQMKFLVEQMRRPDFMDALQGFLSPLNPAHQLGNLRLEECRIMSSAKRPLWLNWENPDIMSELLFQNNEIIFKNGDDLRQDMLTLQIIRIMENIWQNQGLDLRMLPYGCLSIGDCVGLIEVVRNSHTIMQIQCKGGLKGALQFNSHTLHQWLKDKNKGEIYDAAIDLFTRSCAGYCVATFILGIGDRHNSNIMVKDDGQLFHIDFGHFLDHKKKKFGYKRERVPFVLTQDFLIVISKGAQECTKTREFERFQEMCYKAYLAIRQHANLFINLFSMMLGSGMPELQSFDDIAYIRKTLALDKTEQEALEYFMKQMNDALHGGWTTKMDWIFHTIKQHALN

PAK3 (human) = PAK3 (human) (UniProt O75914)
FGFR4 (human) = FGFR4 (human) (UniProt P22455)
CLK1 (human) = CLK1 (human) (UniProt P49759)
[4] = molecular target: TYK2 JH1 catalytic (human) (UniProt P29597)
Chain of TYK2 JH1 catalytic (human) (P29597 whole entry, looked up): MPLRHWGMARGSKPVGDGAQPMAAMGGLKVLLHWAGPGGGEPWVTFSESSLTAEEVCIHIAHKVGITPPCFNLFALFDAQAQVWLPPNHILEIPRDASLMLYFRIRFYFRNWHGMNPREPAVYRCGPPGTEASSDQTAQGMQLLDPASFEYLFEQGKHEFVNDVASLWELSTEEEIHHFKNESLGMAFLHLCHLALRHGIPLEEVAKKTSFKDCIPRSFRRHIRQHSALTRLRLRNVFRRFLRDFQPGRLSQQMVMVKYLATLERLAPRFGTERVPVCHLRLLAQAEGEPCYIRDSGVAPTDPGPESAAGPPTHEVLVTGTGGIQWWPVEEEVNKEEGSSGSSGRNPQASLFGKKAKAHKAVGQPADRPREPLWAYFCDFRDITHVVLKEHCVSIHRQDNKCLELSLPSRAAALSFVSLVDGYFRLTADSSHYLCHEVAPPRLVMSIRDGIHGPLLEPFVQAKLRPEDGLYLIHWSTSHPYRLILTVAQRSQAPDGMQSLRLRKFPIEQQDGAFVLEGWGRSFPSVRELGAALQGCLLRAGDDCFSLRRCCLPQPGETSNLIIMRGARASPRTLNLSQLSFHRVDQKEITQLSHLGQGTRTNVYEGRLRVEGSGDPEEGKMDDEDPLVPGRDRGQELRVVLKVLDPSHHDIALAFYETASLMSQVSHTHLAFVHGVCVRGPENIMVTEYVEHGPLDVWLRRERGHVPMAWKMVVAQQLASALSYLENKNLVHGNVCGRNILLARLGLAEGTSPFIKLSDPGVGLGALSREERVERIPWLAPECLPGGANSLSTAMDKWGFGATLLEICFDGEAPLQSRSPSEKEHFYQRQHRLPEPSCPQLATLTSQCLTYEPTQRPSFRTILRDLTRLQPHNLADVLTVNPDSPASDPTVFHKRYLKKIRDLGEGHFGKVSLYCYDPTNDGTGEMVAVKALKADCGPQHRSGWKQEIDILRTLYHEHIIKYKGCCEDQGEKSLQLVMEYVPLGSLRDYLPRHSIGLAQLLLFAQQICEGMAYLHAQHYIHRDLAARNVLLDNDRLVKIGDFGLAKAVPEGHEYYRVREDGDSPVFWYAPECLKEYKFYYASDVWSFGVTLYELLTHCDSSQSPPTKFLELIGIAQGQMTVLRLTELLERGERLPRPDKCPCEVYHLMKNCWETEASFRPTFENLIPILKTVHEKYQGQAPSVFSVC

CDC42BPB (human) = CDC42BPB (human) (UniProt Q9Y5S2)
RPS6KA4 KD1 (human) = RPS6KA4 KD1 (human) (UniProt O75676)
PTK2B (human) = PTK2B (human) (UniProt Q14289)

Chain of PIK3CA (human), P42336 [E542K] (P42336 whole entry E542K, looked up): as the sequence (P42336 whole entry H1047L, looked up) above, with E542K, L1047H counted along it

| Structure (SMILES) | kinase still bound, per cent of control (MYLK (human)) | kinase still bound, per cent of control (CRK2 (P.falciparum)) | kinase still bound, per cent of control [1] | kinase still bound, per cent of control (STK17B (human)) | kinase still bound, per cent of control (STK35 (human)) | kinase still bound, per cent of control (PLK2 (human)) | kinase still bound, per cent of control (DCLK3 (human)) | kinase still bound, per cent of control (MAP4K3 (human)) | kinase still bound, per cent of control (STK38 (human)) | kinase still bound, per cent of control (FLT3 (human)) | kinase still bound, per cent of control (RPS6KA3 KD1 (human)) | kinase still bound, per cent of control (CHEK2 (human)) | kinase still bound, per cent of control (RIPK1 (human)) | kinase still bound, per cent of control (SBK1 (human)) | kinase still bound, per cent of control (MAPK6 (human)) | kinase still bound, per cent of control (TLK2 (human)) | kinase still bound, per cent of control (MELK (human)) | kinase still bound, per cent of control (ERBB4 (human)) | kinase still bound, per cent of control (ERN1 (human)) | kinase still bound, per cent of control (MLTK (human)) | further results |
| --- | --- | --- | --- | --- | --- | --- | --- | --- | --- | --- | --- | --- | --- | --- | --- | --- | --- | --- | --- | --- | --- |
| CC1=C(C(=O)Nc2cc3cn[nH]c3cc2F)C(c2ccc(C(F)(F)F)cc2)CC(=O)N1 (stereo not given) | 75% | 100% | 92% | 100% | 96% | 86% | 70% | 77% | 19% | 100% | 53% | 78% | 84% | 78% | 98% | 100% | 99% | 41% | 71% | 92% | kinase still bound, per cent of control [2]: 100%; kinase still bound, per cent of control (EPHA3 (human)): 88%; kinase still bound, per cent of control (GRK4 (human)): 99%; kinase still bound, per cent of control (CDK4 CCND1 (human)): 71%; kinase still bound, per cent of control (RPS6KA6 KD2 (human)): 85%; kinase still bound, per cent of control (ERBB3 (human)): 92%; kinase still bound, per cent of control (BMPR2 (human)): 97%; kinase still bound, per cent of control (MAPK1 (human)): 50%; kinase still bound, per cent of control (LYN (human)): 72%; kinase still bound, per cent of control (ALK (human)): 77%; kinase still bound, per cent of control (PRKD3 (human)): 81%; kinase still bound, per cent of control (MAP3K10 (human)): 92%; kinase still bound, per cent of control [3]: 83%; kinase still bound, per cent of control (PAK3 (human)): 36%; kinase still bound, per cent of control (FGFR4 (human)): 67%; kinase still bound, per cent of control (CLK1 (human)): 72%; kinase still bound, per cent of control [4]: 20%; kinase still bound, per cent of control (CDC42BPB (human)): 22%; kinase still bound, per cent of control (RPS6KA4 KD1 (human)): 98%; kinase still bound, per cent of control (PTK2B (human)): 100% |
| CCN1CCN(Cc2ccc(NC(=O)c3ccc(C)c(/C=C/c4cnc5[nH]ccc5c4OC)c3)cc2C(F)(F)F)CC1 | 90% | 93% | 100% | 1% | 23% | 60% | 3.2% | 14% | 72% | 0.95% | 14% | 66% | 0.15% | 57% | 100% | 93% | 20% | 0.1% | 72% | 0.8% | kinase still bound, per cent of control [2]: 41%; kinase still bound, per cent of control (EPHA3 (human)): 4.8%; kinase still bound, per cent of control (GRK4 (human)): 8.2%; kinase still bound, per cent of control (CDK4 CCND1 (human)): 74%; kinase still bound, per cent of control (RPS6KA6 KD2 (human)): 15%; kinase still bound, per cent of control (ERBB3 (human)): 100%; kinase still bound, per cent of control (BMPR2 (human)): 6.6%; kinase still bound, per cent of control (MAPK1 (human)): 100%; kinase still bound, per cent of control (LYN (human)): 0%; kinase still bound, per cent of control (ALK (human)): 51%; kinase still bound, per cent of control (PRKD3 (human)): 52%; kinase still bound, per cent of control (MAP3K10 (human)): 20%; kinase still bound, per cent of control [3]: 100%; kinase still bound, per cent of control (PAK3 (human)): 6%; kinase still bound, per cent of control (FGFR4 (human)): 0.45%; kinase still bound, per cent of control (CLK1 (human)): 14%; kinase still bound, per cent of control [4]: 12%; kinase still bound, per cent of control (CDC42BPB (human)): 65%; kinase still bound, per cent of control (RPS6KA4 KD1 (human)): 50%; kinase still bound, per cent of control (PTK2B (human)): 0.75% |
| COc1cc2ncnc(Nc3cccc(Cl)c3)c2cc1OC | 18% | 100% | 55% | 40% | 58% | 44% | 52% | 100% | 61% | 42% and 58% | 67% | 6.7% | 100% | 25% | 33% | 100% | 74% | 3.5% | 41% | 94% | kinase still bound, per cent of control [2]: 38%; kinase still bound, per cent of control (EPHA3 (human)): 28%; kinase still bound, per cent of control (GRK4 (human)): 100%; kinase still bound, per cent of control (CDK4 CCND1 (human)): 90%; kinase still bound, per cent of control (RPS6KA6 KD2 (human)): 38%; kinase still bound, per cent of control (ERBB3 (human)): 18%; kinase still bound, per cent of control (BMPR2 (human)): 100%; kinase still bound, per cent of control (MAPK1 (human)): 100%; kinase still bound, per cent of control (LYN (human)): 11%; kinase still bound, per cent of control (ALK (human)): 25%; kinase still bound, per cent of control (PRKD3 (human)): 88%; kinase still bound, per cent of control (MAP3K10 (human)): 100%; kinase still bound, per cent of control [3]: 56%; kinase still bound, per cent of control (PAK3 (human)): 25%; kinase still bound, per cent of control (FGFR4 (human)): 98%; kinase still bound, per cent of control (CLK1 (human)): 59%; kinase still bound, per cent of control [4]: 52%; kinase still bound, per cent of control (CDC42BPB (human)): 98%; kinase still bound, per cent of control (RPS6KA4 KD1 (human)): 100%; kinase still bound, per cent of control (PTK2B (human)): 86% |
